Reference: patent US20030181426A1, “Compositions and methods for treating pain using cyclooxygenase-1 inhibitors” (priority 2002, published 2003)

Tests used:
[1] = Phase I safety trial of intrathecal ketorolac in healthy volunteers; type: in vivo, humans
[2] = Ketorolac concentration in cerebrospinal fluid (HPLC); type: in vivo, humans; details: for concentration at 60 min: human, other: intrathecal (lumbar puncture), lumbar CSF 60 min after injection
Experimental: Escalation to the next dose was made only after review of side effects occurring at lower doses, with pre-defined stopping criteria. CSF samples were quantitatively extracted by C-18 reverse phase cartridge chromatography and eluted with acetonitrile. Concentrated eluates were injected on to a HPLC equipped with a Phenomenex 'Prodigy' C-18 reverse phase column (250 mm×4.6 mm). Peaks were detected with an Agilent Model 1100 UV detector set at a wavelength of 313. All unknowns, standards and controls contained an equal quantity of internal standard, 200 ng of indoprofen.

[3] = test system: tactile hypersensitivity after paw incision; experiment: Brennan model: tactile hypersensitivity after paw incision, von Frey withdrawal threshold; type: in vivo, male Sprague-Dawley rats
[4] = test system: locomotor activity after laparotomy; experiment: Post-laparotomy locomotor activity model; type: in vivo, rats
tactile allodynia [5] = experiment: Partial sciatic nerve ligation (PSNL) tactile allodynia, i.t. COX inhibitors; type: in vivo, Sprague-Dawley rats
Description: A Sprague-Dawley rats (Harlan Industries, Indianapolis, Ind., USA), weighing 200-250 g, were used in this study. All animal surgical procedures were in conformity with the Wake Forest University guidelines on the ethical use of animals and studies were approved by the Animal Care and Use Committee. Animals were implanted with intrathecal catheters according to the method described previously. (Yaksh TL, 1976). Briefly, under halothane anesthesia (2-4% in oxygen/air), animals were placed prone in a stereotaxic frame and a small incision was made at the back of the neck. A small puncture was made in the atlanto-occipital membrane of the cistema magna and a polyethylene catheter (PE-10, 7.5 cm) was inserted so that the caudal tip reached the lumbar enlargement of the spinal cord. The rostral end of the catheter was exteriorized at the top of the head and the wound was closed with sutures. Animals were allowed 4-5 days to recover from the surgery and those displaying signs of motor dysfunction (fore limb or hind limb paralysis) were excluded from the study. Rats were anesthetized with 2-4% halothane in oxygen-air. For partial […] nerve ligation (PSNL), the left sciatic nerve was exposed at the high thigh level and one-third to one-half of the nerve was ligated with silk suture (size 6) as previously described (Shir et al., 1991). Animals were maintained after surgery with ad libitum food and water on a 12-h light/dark cycle. All rats were allowed to recover for 4 weeks after PSNL. By then, tactile allodynia was well established in the ipsilateral hindpaw.

tactile allodynia [6] = experiment: PSNL tactile allodynia, local and systemic ketorolac; type: in vivo, rats; details: for duration of reversal of tactile allodynia: disappeared by day 5; for tactile allodynia in the ipsilateral paw: three hours after injection
Experimental: PSNL was performed as described above. […] Three rats in each group were also injected with normal saline to serve as controls. For all injections, rats were briefly anaesthetized by inhalation of 2-4% halothane/96% oxygen and air. Perineural injection was performed as previously described ([…] al. 1995). Briefly, the rat was held in lateral recumbency with the limb to be injected forming a right angle with a longitudinal axis of the trunk. The greater trochanter and ischial tuberosity were localized by palpation. On an imaginary line from the greater trochanter to the ischial tuberosity, about one third of the distance caudal to the greater trochanter, a 25-gauge injection needle was advanced from dorsolateral direction at a 45° angle until the tip encountered the ischium. A total volume of 0.2 mL was injected in a fanning motion along the path of the sciatic nerve.

phosphorylated CREB = experiment: pCREB immunoreactive cells in dorsal horn of PSNL rats; type: in vivo; details: for increased number of pCREB-IR cells in the ipsilateral dorsal horn: 5 days after injection, three weeks after PSNL
Experimental: Quantitative analysis of the pCREB expression in the dorsal horn of PSNL rats receiving either saline or ketorolac intraplantar injection was conducted. […] However, no significant difference in the mean optical density in a fixed area occupied by pCREB-IR cells was detected between both sides of the dorsal horn.

chronic pain = experiment: Intrathecal ketorolac in patients with chronic pain receiving spinal morphine (VAS); type: in vivo, humans
Description: This study focused on safety, but efficacy measures were obtained by having patients rate their pain using a visual analog scale (VAS) before, and at intervals after, intrathecal injection of ketorolac. Data are available from the first 6 patients in this open label study.

noxious heat = experiment: Latency to paw withdrawal from noxious heat; type: in vivo, male Sprague-Dawley rats
Experimental: After Animal Care and Use Committee approval, adult male Sprague-Dawley rats (240-330 g; Harlan, Indianapolis, Ind.) were anesthetized with halothane. A catheter was inserted, as previously described, through a small nick in the cisterna magnum membrane into the intrathecal space and advanced 7.5 cm such that its tip lay in the lumbar intrathecal space. […] After catheter implantation, rats were housed individually with a 12 h/12 h light/dark cycle and an unlimited supply of water and food. Experiments occurred at least 6 days after surgery.

tactile allodynia [7] = experiment: L5 and L6 spinal nerve ligation (SNL) tactile allodynia, lidocaine and ketorolac; type: in vivo, male Sprague-Dawley rats
COX-1 and COX-2 = details: as known in the art / Warner, 1999; cited from earlier work
[8] = i.t. 50 μg, compared to i.t. saline control
[9] = intraplantar injection, vs saline injected rats, P<0.01
[10] = intrathecal ketorolac 50 μg, 1 week after 200 μg intrathecal lidocaine
[11] = intrathecal ketorolac 50 μg, 1 week after 300 μg intrathecal lidocaine

## O=C(c1ccccc1)c1ccc2n1CCC2C(=O)O (stereo not shown) [ketorolac]
[1]; 0.5 mg i.t., one individual, 24 h after injection, resolved the following day
  headache: mild headache
[1]; entire group
  heart rate prior to injection, range: 52-86 bpm
  minimum heart rate at any time after injection, range: 45-69 bpm
[1]; entire group, mean ± SE
  heart rate prior to injection: 67±2.1 bpm
  minimum heart rate at any time after injection: 57±1.7 bpm
[1]; for 1 hr following ketorolac, significant within each dose group except 2.0 mg
  heart rate: decreased
[1]; i.t. 0.25, 0.5, 1, or 2 mg open label dose-escalation, early studies of 14 subjects
  side effects: no side effects were observed
[1]; i.t. 0.25-2 mg
  blood pressure, oxyhemoglobin saturation, end-tidal CO2: did not affect
  deviation of blood pressure, oxyhemoglobin saturation, end-tidal CO2 from pre-injection values: ≤ 10%
  side effects at long-term follow up: no side effects
  subjective neurologic symptoms: no subjective neurologic symptoms in any volunteer
  symptomatic bradycardia: In no case
[1]; i.t. 0.25-2 mg, at any time
  sedation, anxiety, gastrointestinal or genitourinary symptoms, or dizziness: No volunteer reported
[1]; i.t. 0.25-2 mg, twenty volunteers
  neurologic examination: no effect
[1]; i.t., doses up to 1.0 mg
  side effects: no side effects
[2]; 60 min after injection
  dose dependence of lumbar CSF drug concentration: apparent plateau at the 1 and 2 mg doses
[2]; 0.5 mg, 0.50 mg i.t.
  concentration at 60 min: 13.4 ± 1.2 µg/mL
[2]; 0.25 mg i.t.
  concentration at 60 min: 4.6 ± 0.2 µg/mL
[2]; 1.0 mg i.t.
  concentration at 60 min: 30.7 ± 8.8 µg/mL
[2]; 2.0 mg i.t.
  concentration at 60 min: 33.5 ± 5.2 µg/mL
[3]; i.t. 50 μg given on the first postoperative day, established tactile hypersensitivity, within 30 min
  withdrawal threshold (von Frey) after paw incision: increased withdrawal threshold
[3]; i.t. 50 μg, pretreatment 15 min before surgery, compared to saline control 2 hr later and on the next day
  withdrawal threshold (von Frey) after paw incision: increased withdrawal threshold
[4]; [8]
  ambulatory locomotor activity after laparotomy: increased
  vertical locomotor activity after laparotomy: increased
[4]; ketorolac alone
  locomotor activity in the absence of surgery: no effect
[4]; systemic ketorolac 5 mg/kg i.p. with morphine
  effect on morphine's effect on ambulatory activity: potentiate morphine's effect
[4]; systemic, 5 mg/kg i.p.
  ambulatory activity after laparotomy: failed to affect ambulatory activity
Tactile allodynia [5]; 4 weeks after PSNL
  duration of reversal of withdrawal threshold: 6 days
Tactile allodynia [5]; 4 weeks after PSNL, two hours following injection
  withdrawal threshold, ipsilateral hindpaw: significantly reversed to pre-lesion baseline
Tactile allodynia [5]; eight days after injection
  withdrawal threshold, ipsilateral hindpaw: returned to the pre-injection level
Tactile allodynia [6]; 0.2 mL 0.5% intramuscular
  duration of reversal of tactile allodynia: 3 days
  tactile allodynia in the ipsilateral paw: reversed
Tactile allodynia [6]; 0.2 mL 0.5% intraperitoneal
  duration of reversal of tactile allodynia: 3 days
  tactile allodynia in the ipsilateral paw: reversed
Tactile allodynia [6]; 0.2 mL 0.5% intraplantar, 3 weeks after PSNL, three hours to 5 days
  tactile allodynia in the ipsilateral hindpaw: reversed the tactile allodynia
Tactile allodynia [6]; 0.2 mL 0.5% peri-neural, 3 weeks after PSNL
  antiallodynic effect: slow onset of antiallodynic effect that was observed only 3 and 5 days after injection
Phosphorylated CREB; intraplantar injection
  increased number of pCREB-IR cells in the ipsilateral dorsal horn: dramatically reduced
Phosphorylated CREB; [9]
  mean optical density of pCREB-IR cells, contralateral dorsal horn: significantly decreased
  mean optical density of pCREB-IR cells, ipsilateral dorsal horn: significantly decreased
Phosphorylated CREB; local injection, compared with saline injected PSNL rats
  number of pCREB-IR cells in the contralateral dorsal horn: also decreased
Phosphorylated CREB; peri-neural injection
  increased number of pCREB-IR cells in the ipsilateral dorsal horn: dramatically reduced
Chronic pain; beginning 1 hour after injection and lasting throughout the remaining 3 hours of observation, n=6
  VAS pain: significantly reduced
Chronic pain; i.t. 0.5 mg (5 patients) or 1.0 mg (1 patient), patients on spinal morphine
  adverse events: no significant adverse events
Chronic pain; n=6
  VAS pain after injection: 3
  VAS pain prior to injection: 5
Noxious heat; addition of ketorolac to clonidine
  antinociception (latency to paw withdrawal from noxious heat): increased antinociception
Noxious heat; drug alone, rats with intrathecal catheter
  antinociception (latency to paw withdrawal from noxious heat): did not
Noxious heat; i.t. ketorolac, rats
  withdrawal threshold to noxious heat: lack of effect
Tactile allodynia [7]; intrathecal ketorolac 50 μg alone
  tactile allodynia caused by SNL: failed to attenuate
Tactile allodynia [7]; intrathecal ketorolac 50 μg, 1 week after 100 μg intrathecal lidocaine
  antiallodynic effect: failed to exert any antiallodynic effect
Tactile allodynia [7]; [10]
  duration of reversal of tactile allodynia: 4 h
  tactile allodynia caused by SNL: reversed tactile allodynia
Tactile allodynia [7]; [11]
  duration of reversal of tactile allodynia: 4 h
  tactile allodynia caused by SNL: reversed tactile allodynia
Tactile allodynia [7]; intrathecal ketorolac 50 μg, 1 week following prior intrathecal ketorolac 50 μg
  SNL-induced tactile allodynia: failed to alleviate
Tactile allodynia [7]; intrathecal ketorolac 100 μg alone
  SNL-induced tactile allodynia: failed to alleviate
Tactile allodynia [7]; intrathecal ketorolac 100 μg, 1 week after intrathecal lidocaine
  SNL-induced tactile allodynia: exhibited the antiallodynic effect
Tactile allodynia [7]; one day after intrathecal ketorolac, rats previously given 200 and 300 μg lidocaine
  antiallodynic effect: disappeared
dog, in vivo
  systemic toxicity at large doses: gastrointestinal ulceration and bleeding
i.t., dogs
  spinal neurotoxicity: no evidence for spinal neurotoxicity
COX-1 and COX-2
  preference in inhibition of COX-1 and COX-2: one of the most selective COX-1 antagonists
